Results as given in PubChem BioAssay AID180 (DTP/NCI, 2004).
“And” between values parts separate entries of the source, which are not always exact repeats. Equal values may be shown once.

Tested on: BDF1 mice, Adenocarcinoma 755 s.c., tumor weight T/C
Experiment: NCI In Vivo Anticancer Drug Screen. Data for tumor model Adenocarcinoma 755 (subcutaneous) in B6D2F1 (BDF1) mice
Settings: endpoint: mean tumor weight, higher = larger tumour
Procedure, shortened: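 Values express treated (T) relative to vehicle-dosed control (C) animals, based on survival or tumour size measured after compound treatment of mice bearing a transplanted tumour.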

[1] = dose: 12.5 mg/kg/injection, schedule: Q01DX011 (ip), vehicle: methylcellulose (MC)
[2] = dose: 25.0 mg/kg/injection, schedule: Q01DX011 (ip), vehicle: saline
[3] = dose: 125.0 mg/kg/injection, schedule: Q01DX011 (ip), vehicle: methylcellulose (MC)
[4] = dose: 15.0 mg/kg/injection, schedule: Q01DX011 (ip), vehicle: methylcellulose (MC)
[5] = dose: 50.0 mg/kg/injection, schedule: Q01DX011 (ip), vehicle: other
[6] = dose: 100.0 mg/kg/injection, schedule: Q01DX011 (ip), vehicle: other
[7] = dose: 30.0 mg/kg/injection, schedule: Q01DX011 (ip), vehicle: carboxymethylcellulose (CMC)
[8] = dose: 60.0 mg/kg/injection, schedule: Q01DX011 (ip), vehicle: carboxymethylcellulose (CMC)
[9] = dose: 120.0 mg/kg/injection, schedule: Q01DX011 (ip), vehicle: carboxymethylcellulose (CMC)
[10] = dose: 50.0 mg/kg/injection, schedule: Q01DX011 (ip), vehicle: methylcellulose (MC)
[11] = dose: 100.0 mg/kg/injection, schedule: Q01DX011 (ip), vehicle: methylcellulose (MC)

Structure (SMILES): O=C(O)Cn1cccc1
- T/C (dose: 250.0 mg/kg/injection, schedule: Q01DX011 (ip), vehicle: other): 80 % of control
- T/C (dose: 500.0 mg/kg/injection, schedule: Q01DX011 (ip), vehicle: other): 98 % of control
- T/C (dose: 4000.0 mg/kg/injection, schedule: Q01DX011 (ip), vehicle: other): 70 % of control

Structure (SMILES): CCCNc1ncnc2c1cnn2C
- T/C (dose: 3.12 mg/kg/injection, schedule: Q01DX011 (ip), vehicle: methylcellulose (MC)): 84 % of control
- T/C (dose: 3.12 mg/kg/injection, schedule: Q01DX011 (ip), vehicle: saline): 101 % of control
- T/C (dose: 6.25 mg/kg/injection, schedule: Q01DX011 (ip), vehicle: methylcellulose (MC)): 80 % of control
- T/C (dose: 6.25 mg/kg/injection, schedule: Q01DX011 (ip), vehicle: saline): 86 % of control
- T/C [1]: 32 % of control
- T/C (dose: 12.5 mg/kg/injection, schedule: Q01DX011 (ip), vehicle: saline): 19 % of control
- T/C [2]: 8 % of control

Structure (SMILES): CC(=O)OCC1CCCC(n2cnc3c(Cl)ncnc32)O1 (centres undefined)
- T/C (dose: 62.5 mg/kg/injection, schedule: Q01DX011 (ip), vehicle: methylcellulose (MC)): 74 % of control
- T/C [3]: 52 % of control
- T/C (dose: 250.0 mg/kg/injection, schedule: Q01DX011 (ip), vehicle: methylcellulose (MC)): 26 % of control

Structure (SMILES): Cn1c(N)cc(=O)[nH]c1=S
- T/C (dose: 3.5 mg/kg/injection, schedule: Q01DX011 (ip), vehicle: methylcellulose (MC)): 98 % of control
- T/C (dose: 7.0 mg/kg/injection, schedule: Q01DX011 (ip), vehicle: methylcellulose (MC)): 40 % of control
- T/C [4]: 65 % of control
- T/C (dose: 30.0 mg/kg/injection, schedule: Q01DX011 (ip), vehicle: methylcellulose (MC)): 79 % of control
- T/C (dose: 60.0 mg/kg/injection, schedule: Q01DX011 (ip), vehicle: methylcellulose (MC)): 29 % of control

Structure (SMILES): COc1cccc2c1cc([N+](=O)[O-])c1c(C(=O)O)cc3c(c12)OCO3
- T/C [5]: 59 % of control
- T/C [6]: 43 % of control

Structure (SMILES): CC(=O)OC1(C)CC(C)C(=O)C(C(O)CC2CC(=O)NC(=O)C2)C1 (centres undefined)
- T/C (dose: 0.2 mg/kg/injection, schedule: Q01DX006 (ip), vehicle: other): 38 % of control
- T/C (dose: 0.5 mg/kg/injection, schedule: Q01DX006 (ip), vehicle: other): 17 % of control
- T/C (dose: 0.5 mg/kg/injection, schedule: Q01DX006 (ip), vehicle: water): 72 % of control
- T/C (dose: 2.0 mg/kg/injection, schedule: Q01DX006 (ip), vehicle: water): 66 % of control
- T/C (dose: 5.0 mg/kg/injection, schedule: Q01DX006 (ip), vehicle: water): 114 % of control
- T/C (dose: 10.0 mg/kg/injection, schedule: Q01DX006 (ip), vehicle: water): 71 % of control
- T/C (dose: 1:500.0 dilution, schedule: Q01DX006 (ip), vehicle: water): 84 % of control
- T/C (dose: 1:1000.0 dilution, schedule: Q01DX006 (ip), vehicle: water): 115 % of control
- T/C (dose: 1:2000.0 dilution, schedule: Q01DX006 (ip), vehicle: water): 105 % of control and 83 % of control
- T/C (dose: 1:20000.0 dilution, schedule: Q01DX006 (ip), vehicle: water): 39 % of control
- T/C (dose: 1:100000.0 dilution, schedule: Q01DX006 (ip), vehicle: water): 101 % of control

Structure (SMILES): Nc1nc(Br)c2ncn(C3OC(CO)C(O)C3O)c2n1 (centres undefined)
- T/C [7]: 107 % of control
- T/C [8]: 86 % of control
- T/C [9]: 106 % of control
- T/C (dose: 240.0 mg/kg/injection, schedule: Q01DX011 (ip), vehicle: carboxymethylcellulose (CMC)): 103 % of control

Structure (SMILES): CCOP(=O)(OCC)OCC1OC(n2cnc3c(=S)nc[nH]c32)C(O)C1O (centres undefined)
- T/C (dose: 4.0 mg/kg/injection, schedule: Q01DX011 (ip), vehicle: methylcellulose (MC)): 50 % of control
- T/C (dose: 8.0 mg/kg/injection, schedule: Q01DX011 (ip), vehicle: methylcellulose (MC)): 49 % of control
- T/C (dose: 16.0 mg/kg/injection, schedule: Q01DX011 (ip), vehicle: methylcellulose (MC)): 56 % of control
- T/C (dose: 31.0 mg/kg/injection, schedule: Q01DX011 (ip), vehicle: methylcellulose (MC)): 33 % of control
- T/C (dose: 62.0 mg/kg/injection, schedule: Q01DX011 (ip), vehicle: methylcellulose (MC)): 46 % of control
- T/C [3]: 7 % of control

Structure (SMILES): CC(=O)Nc1c(Cl)c(Cl)c2c(c1Cl)C(=O)c1cc(Cl)ccc1-2
- T/C [10]: 57 % of control
- T/C [5]: 100 % of control and 112 % of control
- T/C [11]: 65 % of control
- T/C [6]: 65 % of control
- T/C (dose: 400.0 mg/kg/injection, schedule: Q01DX011 (ip), vehicle: other): 41 % of control and 64 % of control and 66 % of control
- T/C (dose: 800.0 mg/kg/injection, schedule: Q01DX011 (ip), vehicle: other): 59 % of control

Structure (SMILES): O=c1[nH]c2cnc(Cl)nc2[nH]1
- T/C [7]: 116 % of control
- T/C [8]: 85 % of control
- T/C [9]: 168 % of control

Structure (SMILES): c1nc(N2CC2)c2ncn(C3CCCCC3)c2n1
- T/C (dose: 12.5 mg/kg/injection, schedule: Q01DX011 (ip), vehicle: carboxymethylcellulose (CMC)): 36 % of control
- T/C (dose: 50.0 mg/kg/injection, schedule: Q01DX011 (ip), vehicle: carboxymethylcellulose (CMC)): 94 % of control

Structure (SMILES): CCC(C)Cn1cnc2c(=S)nc(N)[nH]c21 (centres undefined)
- T/C [4]: 2 % of control

Structure (SMILES): O=C(CCBr)NCNC(=O)CCBr
- T/C (dose: 28.0 mg/kg/injection, schedule: Q01DX011 (ip), vehicle: methylcellulose (MC)): 56 % of control
- T/C (dose: 57.0 mg/kg/injection, schedule: Q01DX011 (ip), vehicle: methylcellulose (MC)): 28 % of control

Structure (SMILES): O=C(O)CNc1ncnc2[nH]ncc12
- T/C [1]: 65 % of control
- T/C (dose: 25.0 mg/kg/injection, schedule: Q01DX011 (ip), vehicle: methylcellulose (MC)): 82 % of control
- T/C [10]: 36 % of control
- T/C [11]: 2 % of control and 7 % of control

Structure (SMILES): O=P(N1CC=CCC1)(N1CC1)N1CC1
- T/C (dose: 0.03 mg/kg/injection, schedule: Q01DX011 (ip), vehicle: saline): 75 % of control
- T/C (dose: 0.05 mg/kg/injection, schedule: Q01DX011 (ip), vehicle: saline): 81 % of control
- T/C (dose: 0.1 mg/kg/injection, schedule: Q01DX011 (ip), vehicle: saline): 114 % of control
- T/C (dose: 0.2 mg/kg/injection, schedule: Q01DX011 (ip), vehicle: saline): 100 % of control
- T/C (dose: 25.0 micrograms/kg/injection, schedule: Q01DX011 (ip), vehicle: saline): 120 % of control
- T/C (dose: 50.0 micrograms/kg/injection, schedule: Q01DX011 (ip), vehicle: saline): 94 % of control
- T/C (dose: 100.0 micrograms/kg/injection, schedule: Q01DX011 (ip), vehicle: saline): 114 % of control
- T/C (dose: 200.0 micrograms/kg/injection, schedule: Q01DX011 (ip), vehicle: saline): 106 % of control

Structure (SMILES): CSc1ncc(C)c(Nc2ccc(Cl)cc2)n1
- T/C [4]: 102 % of control

Structure (SMILES): C[C@@H]1CC2=CC(=O)C=C[C@]2(C)[C@H]2CC[C@@]3(C)[C@@H](CC[C@]3(C)O)[C@H]12
- T/C (dose: 400.0 mg/kg/injection, schedule: Q01DX011 (sc), vehicle: steriod suspending solution): 16 % of control
- T/C (dose: 800.0 mg/kg/injection, schedule: Q01DX011 (sc), vehicle: steriod suspending solution): 33 % of control

Structure (SMILES): CSc1nc(Cl)cc(NC(=O)CCl)n1
- T/C [8]: 124 % of control

Structure (SMILES): CCC(C)Cn1cnc2c(SCc3ccccn3)nc(N)nc21 (centres undefined)
- T/C (dose: 16.2 mg/kg/injection, schedule: Q01DX011 (ip), vehicle: methylcellulose (MC)): 37 % of control
- T/C (dose: 32.5 mg/kg/injection, schedule: Q01DX011 (ip), vehicle: methylcellulose (MC)): 32 % of control
- T/C (dose: 65.0 mg/kg/injection, schedule: Q01DX011 (ip), vehicle: methylcellulose (MC)): 23 % of control and 29 % of control

Structure (SMILES): CC(=O)N(C)c1ccccc1
- T/C (dose: 12.5 mg/kg/injection, schedule: Q01DX011 (ip), vehicle: other): 69 % of control
- T/C (dose: 25.0 mg/kg/injection, schedule: Q01DX011 (ip), vehicle: other): 88 % of control
- T/C [5]: 73 % of control
- T/C [6]: 95 % of control

Structure (SMILES): N#CCSc1nc(N)nc2nc[nH]c12
- T/C (dose: 0.5 mg/kg/injection, schedule: Q01DX011 (ip), vehicle: carboxymethylcellulose (CMC)): 82 % of control
- T/C (dose: 1.0 mg/kg/injection, schedule: Q01DX011 (ip), vehicle: carboxymethylcellulose (CMC)): 63 % of control
- T/C (dose: 2.0 mg/kg/injection, schedule: Q01DX011 (ip), vehicle: carboxymethylcellulose (CMC)): 70 % of control

Structure (SMILES): O=C(Nc1ccc2c(O)c(N=Nc3ccccc3)c(S(=O)(=O)O)cc2c1)Nc1ccc2c(O)c(N=Nc3ccc4cc(S(=O)(=O)O)ccc4c3)c(S(=O)(=O)O)cc2c1
- T/C (dose: 45.0 mg/kg/injection, schedule: Q01DX011 (ip), vehicle: carboxymethylcellulose (CMC)): 47 % of control

Structure (SMILES): Cn1ncc2c([N+](C)(C)C)ncnc21
- T/C [2]: 82 % of control
- T/C (dose: 75.0 mg/kg/injection, schedule: Q01DX011 (ip), vehicle: saline): 111 % of control
